# Results taken from PubChem BioAssay (NCI).
# “And” between values parts separate entries of the source, which are not always exact repeats. Equal entries are not always repeated.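 Interpolation was linear, between the two tested concentrations surrounding the appropriate level; five concentrations were tested over 48 hours in 96-well plates. TGI is the concentration that stops growth completely.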
# Experiments:
# Experiment in all cases: NCI-60 cell line screen, 48 h
# [1] = system: HCC-2998 colon
# [2] = system: HCT-116 colon
# [3] = system: IGROV1 ovarian
# [4] = system: M14 melanoma
# [5] = system: NCI-H226 lung
# [6] = system: NCI/ADR-RES ovarian
# [7] = system: OVCAR-8 ovarian
# [8] = system: SF-268 CNS
# [9] = system: UO-31 renal
# [10] = system: COLO 205 colon
Structure (SMILES),TGI [1],TGI [2],TGI [3],TGI [4],TGI [5],TGI [6],TGI [7],TGI [8],TGI [9],TGI [10]
CCOC(=O)Nc1cc2c(c(N)n1)N=C(c1ccc3ccccc3c1)CN2,1.47 µM,1.49 µM,> 100 µM,17.5 µM,3.5 µM,0.16 µM,10.8 µM,> 86.1 µM,> 62.9 µM,
COC(=O)NC1C(C)OC(OC2C/C=C(/C)C3C=CC4C(OC5CC(OC6CC(OC7CC(O)C(O)C(C)O7)C(OC7CC(O)C(OC)C(C)O7)C(C)O6)C(O)C(C)O5)C(C)CC(C)C4C3(C)/C(O)=C3\C(=O)OC4(CC(C)C(CO)=CC4/C=C\2C)C3=O)CC1(C)[N+](=O)[O-] (stereo unspecified),18.9 µM,3.09 µM,34 µM,77 µM,,> 100 µM,33.4 µM,> 100 µM,51.3 µM,36.2 µM
Nc1nc(OCC2CCCCC2)c2[nH]cnc2n1,> 67.8 µM,74 µM,> 48.6 µM,57.8 µM,73.7 µM,> 100 µM,> 100 µM,> 100 µM,38.2 µM,> 56.9 µM
COC(=O)/C=C1\CCCN1CCc1cc2c(cc1CC#N)OCO2,93.7 µM,> 100 µM,> 100 µM,> 100 µM,> 100 µM,> 100 µM,> 100 µM,> 100 µM,> 100 µM,> 100 µM
CS(=O)(=O)OCCN(CCOS(C)(=O)=O)c1ccc(/C=N/Nc2ncnc3nc[nH]c23)cc1,39.5 µM,59.9 µM,71.6 µM,34.1 µM,51.7 µM,,57.7 µM,46.1 µM,92 µM,31.7 µM
O=C(CSc1nc2ccc(I)cc2c(=O)n1Cc1ccccc1)NN1C(=O)c2ccccc2C1=O,> 100 µM,> 100 µM,64.2 µM,> 100 µM,23.5 µM,42.8 µM,34.1 µM,36.4 µM,6.14 µM,> 100 µM
Cc1[nH]n(-c2ccccc2)c(=O)c1C(N(CCc1ccccc1)C1=NCC(C)S1)(C(F)(F)F)C(F)(F)F (stereo unspecified),34 µM,23.8 µM,,32.2 µM,29.5 µM,89 µM,,> 100 µM,25.3 µM,18.7 µM
NCCNCCNc1ccc(NCCNCCN)c2c1C(=O)c1c(O)ccc(O)c1C2=O,> 100 µM,> 100 µM,> 100 µM,> 100 µM,> 100 µM,> 100 µM,> 100 µM,> 100 µM,> 100 µM,> 100 µM
C[N+](C)(C)CCN[N+]1(C)CCCc2ccccc21 (stereo unspecified),> 100 µM,> 100 µM,> 100 µM,> 100 µM,> 100 µM,> 100 µM,> 100 µM,> 100 µM,> 100 µM,> 100 µM
CCOP(=O)(OCC)C(Nc1cccc(F)c1)c1ccc(N(C)C)cc1 (stereo unspecified),> 100 µM,> 100 µM,> 100 µM,> 100 µM,> 100 µM,> 100 µM,> 100 µM,> 100 µM,> 100 µM,> 100 µM
Cc1ccc(N=NC(C2=NC(=O)CS2)c2nc3ccccc3[nH]2)cc1 (stereo unspecified),,> 100 µM,> 100 µM,> 100 µM,> 100 µM,,> 100 µM,> 100 µM,> 100 µM,> 100 µM
O=c1c2cc(S(=O)(=O)O)ccc2nc(COc2ccc(Oc3ccc(Cl)cc3Cl)cc2)n1C(=S)Nc1ccc(Cl)cc1,,53.3 µM,> 100 µM,40.9 µM,42.4 µM,37.9 µM,55.3 µM,31.3 µM,29.7 µM,34.1 µM
Cc1ccc([N+](=O)[O-])cc1S(=O)(=O)Nc1ccc(C2=NOC(c3ccccc3O)C2)cc1 (stereo unspecified),24.8 µM,34.5 µM,> 100 µM,6.85 µM,> 100 µM,8.53 µM,> 100 µM,> 100 µM,1.34 µM,19.8 µM
CC(=O)OCC1OC(Oc2cc(C)c(O)cc2C/C=C(\C)CC/C=C(\C)C[C@@H](C=C(C)C)OC(C)=O)C(O)C(OC(C)=O)C1OC(C)=O (stereo partly specified),41.2 µM,> 50 µM,> 50 µM,> 50 µM,,> 50 µM,> 50 µM,> 50 µM,> 50 µM,16.8 µM
CC1(C=O)CCC23COC4(CCC5C6(C)CCC(OC7OCC(OC8OC(CO)C(O)C(OC9OC(CO)C(O)C(O)C9O)C8OC8OCC(O)C(O)C8O)C(O)C7OC7OC(CO)C(O)C(O)C7O)C(C)(C)C6CCC5(C)C4(C)CC2O)C3C1 (stereo unspecified),2.17 µM,2.74 µM,2.88 µM,2.85 µM,3.47 µM,1.05 µM,1.48 µM,2.47 µM,2.8 µM,2.56 µM
c1c2c(cc3c1OCO3)-c1cc3ccc4c(c3c[n+]1CC2)OCO4,> 12.5 µM,> 5.82 µM,> 12.5 µM,5.9 µM,> 11.1 µM,1.28 µM,4.13 µM,> 12.5 µM,> 12.5 µM,> 10.8 µM
CN(C)CCCN1c2ccc([N+](=O)[O-])cc2CCc2cc([N+](=O)[O-])ccc21,21.9 µM and 24.7 µM,27.4 µM and 27.1 µM,28.9 µM and 29.1 µM,31 µM and 28 µM,32.8 µM and 33.4 µM,30.8 µM and 32.6 µM,29.5 µM and 30 µM,30.2 µM and 29 µM,37.4 µM and 25 µM,32 µM and 29.4 µM
